Reference: patent US8445510B2, “Fused bicyclic kinase inhibitors” (OSI Pharmaceuticals, LLC, priority 2011, dated 2013)

Key:
Type in all cases: cell-based
MKN45 cells = assay: MKN45 cell proliferation assay (CellTiter-Glo); conditions: Homo sapiens, MKN-45, 72 h; MKN45 cell line; 3 days incubation; at least duplicate experiments; read-out: Prolif. IC50
Description: The effect of inhibitors on the proliferation of MKN45 cells was determined using the following protocol. MKN45 cells were plated in Corning 3917 96-well white tissue culture treated plates in growth medium (RPMI, 10% FCS) at a density of 5000 cells/well in a total volume of 135 μL and incubated at 37° C., 5% CO2, 95% humidity overnight. The following day, one-tenth volume of a 10× concentration of compounds was added to the wells in an 8-point dilution series. The dilution series was composed of an initial 1:5 dilution of a 10 mM stock of compound in DMSO, followed by serial 1:4 dilutions in DMSO, then a 1:20 dilution in growth medium prior to the 1:10 dilution into the cell plate. […] The typical dilution range is 10 μM to 0.6 nM. Once the compound was added to the cells, plates were incubated for 3 days at 37° C., 5% CO2 at 95% humidity. On the third day, after allowing all cells and reagents to come to room temperature, 25 μL of CellTiter-Glo reagent (Promega #G7573) was added to the wells. Plates were shaken on a platform for 10 minutes prior to reading luminescence for 0.1 seconds. The signal of the control wells was taken as 100% growth and growth inhibition was expressed as percent of control. IC50 values were determined from the percent of control data using a standard four-parameter model.
(§1) The IC50 values of exemplary compounds of the present invention determined in a cell proliferation assay using the MKN45 cell line according to the procedures described herein in at least duplicate experiments are abbreviated as follows and are shown in Table 2: A, IC50≦0.05 μM; B, 0.05 μM<IC50≦0.2 μM; C, 0.2 μM<IC50≦1 μM; D, IC50>1 μM; ND, not determined. The Example # of Table 2 corresponds to the compound example number as illustrated in the Examples section.
Treatment of this cell line with a selective c-MET inhibitor led to induction of apoptosis and inhibition of proliferation, whereas non-MET-amplified cell lines were not affected [Smolen et al., Proc. Natl. Acad. Sci. USA, 103(7):2316-2321 (2006)]. This cell line is thus “driven” by c-MET, and antiproliferative effects correlate very well with the inhibition of c-MET phosphorylation so that the cell proliferation IC50, values can be used as surrogate for the c-MET cell mechanistic IC50, values. Under the assay conditions described herein, the IC50 values correlate nearly 1:1.

RON = target: T1, RON (Homo sapiens, UniProt Q04912); assay: sfRON cell mechanistic assay (HeLa), phosphorylated RON ELISA; conditions: HeLa cells transfected with sfRON; inhibition of phosphorylated RON; four hours incubation; at least duplicate experiments; read-out: sfRON mech IC50
T1 sequence (Q04912 913-1400): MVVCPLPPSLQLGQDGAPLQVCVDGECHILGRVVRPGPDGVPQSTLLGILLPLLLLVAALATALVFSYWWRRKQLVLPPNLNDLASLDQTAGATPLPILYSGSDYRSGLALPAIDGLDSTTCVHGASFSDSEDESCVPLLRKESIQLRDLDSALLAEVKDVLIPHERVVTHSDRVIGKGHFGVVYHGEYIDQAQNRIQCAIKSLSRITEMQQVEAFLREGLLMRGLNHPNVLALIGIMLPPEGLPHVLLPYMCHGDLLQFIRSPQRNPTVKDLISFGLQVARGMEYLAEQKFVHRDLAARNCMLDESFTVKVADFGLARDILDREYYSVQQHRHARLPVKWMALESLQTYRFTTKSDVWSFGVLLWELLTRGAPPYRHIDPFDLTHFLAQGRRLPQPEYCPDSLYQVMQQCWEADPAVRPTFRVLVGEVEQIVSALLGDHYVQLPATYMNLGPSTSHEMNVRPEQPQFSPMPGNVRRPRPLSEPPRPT
Description: The cellular activity of the compounds of the present invention against RON may be determined by the following procedure. HeLa cells were plated in Falcon 3072 96-well plates in growth media (DMEM, 10% FBS, 1% L-glutamine) at a density of 10000 cells/well and incubated at 37° C., 5% CO2 overnight. The following day, cells were transfected with 0.2 μg sfRON-pcDNA plasmid DNA with 0.5 μL Lipofectamine-2000 per well in the presence of 50 μL OPTI-MEM, incubated at 37° C., 5% CO2 overnight. Costar 3915 96-well assay plates were coated with rabbit Anti-RON antibody at 2.0 μg/mL, sealed, and incubated overnight at 4° C. On the third day, coated plates were washed with PBS and blocked with 3% BSA. For the sfRON transfected cells, one-tenth volume of a 10× concentration of compounds was added to the wells in a 6-point dilution series. The dilution series was composed of an initial 1:5 dilution of a 10 mM DMSO stock solution of compound in DMSO, followed by a 1:10 dilution in growth media, for a final DMSO concentration on cells of 0.5%. Control wells were treated with 0.5% DMSO. The typical range of dilution was 10 μM to 3 nM. Once compound was added to the cells, plates were incubated for four hours at 37° C., 5% CO2. Plates were then washed in PBS, and lysed in triton-based lysis buffer. Lysates were transferred to the blocked capture plates. The phosphorylated RON levels were measured by incubating with a Goat polyclonal antibody against phosphorylated RON ([pYpY1238/1239]) followed by an anti-Goat antibody conjugated to HRP. Signal was measured on a Wallac Victor plate reader with luminance. The DMSO signal of the control wells was defined as 100% and the percent of inhibition of phosphorylated RON was expressed as percent of control. IC50 values were determined from the percent of control data using a standard four-parameter model.
The IC50 values of exemplary compounds of the present invention determined in a sfRON cell mechanistic assay using the HeLa cell line according to the procedures described herein in at least duplicate experiments are abbreviated as follows and are shown in Table 3: A, IC50≦0.2 μM; B, 0.2 μM<IC50≦1.0 μM; C, IC50>1 μM; ND, not determined. The Example # of Table 3 corresponds to the compound example number as illustrated in the Examples section.

Karpas-299 cells = assay: Karpas-299 cell proliferation assay (CellTiter-Glo); conditions: Homo sapiens, 72 h; Karpas-299 cell line (NPM-ALK); 3 days incubation; at least duplicate experiments; read-out: Prolif. IC50
Description: The effect of inhibitors on the proliferation of Karpas-299 cells (DSMZ no. ACC 31) was determined using the following protocol. Karpas-299 cells were plated in 96-well white tissue culture treated plates (Corning 3917) in growth medium (RPMI, 10% FCS) at a density of 5000 cells/well in a total volume of 135 μL and incubated at 37° C., 5% CO2, 95% humidity overnight. The following day, one-tenth volume of a 10× concentration of compounds was added to the wells in an 8-point dilution series. Compounds were serially diluted (1:4) in DMSO from a 10 mM stock solution prior to dilution in growth media to the 10× working concentrations (5% DMSO). Final concentration of DMSO in compound-treated wells was 0.5%. Control wells containing growth media or growth media/0.5% DMSO were included in all test plates. […] Once the compounds were added to the cells, plates were incubated for 3 days at 37° C., 5% CO2 at 95% humidity. After 72 hours, all cells and reagents were equilibrated to room temperature and 15 μL of CellTiter-Glo reagent (Promega # G7573) was added to each well. Plates were shaken on a platform for 10 minutes at room temperature prior to reading luminescence. The value of the signal of the control wells was set as 100% growth and growth inhibition was expressed as percent of control. IC50 values were determined from the percent of control data using a standard four-parameter curve fit equation.
as §1, with “the Karpas-299” for “the MKN45”, “Table 5:” for “Table 2:”, “Table 5” for “Table 2”
The Karpas-299 cell line has a t(2; 5) chromosomal translocation and expresses the NPM-ALK fusion protein, resulting in constitutively active ALK. […] Ther. 6(12):3314-22 (2007)]. With this “ALK-driven” cell line, the cell proliferation IC50 values can thus be used as surrogate for the p-ALK cell mechanistic IC50 values.

| SMILES | IC50 (MKN45 cells) [nM] | IC50 (RON) [nM] | IC50 (Karpas-299 cells) [nM] |
| --- | --- | --- | --- |
| Cc1c(-c2cnc3[nH]cc([C@H](C)c4c(OC(F)F)ccc(F)c4Cl)c3c2)cnn1[C@H]1CC[C@H](N)CC1 [Example 93, trans-4-[4-(3-{(1S)-1-[2-Chloro-6-(difluoromethoxy)-3-fluorophenyl]ethyl}-1H-pyrrolo[2,3-b]pyridin-5-yl)-5-methyl-1H-pyrazol-1-yl]cyclohexanamine] | ≤ 50 | ≤ 200 | ≤ 50 |
| N#CC(c1c(Cl)ccc(F)c1Cl)c1c[nH]c2ncc(-c3cnn([C@H]4CC[C@H](O)CC4)c3F)cc12 (stereo partly drawn) [Example 109] | 50 to 200 | 200 to 1000 | 200 to 1000 |
| COc1c(F)ccc(Cl)c1C(C)c1c[nH]c2ncc(-c3cnn([C@H]4CC[C@H](O)CC4)c3C)cc12 (stereo partly drawn) [Example 112, trans-4-(4-{3-[1-(6-Chloro-3-fluoro-2-methoxyphenyl)ethyl]-1H-pyrrolo[2,3-b]pyridin-5-yl}-5-methyl-1H-pyrazol-1-yl)cyclohexanol] | > 1000 | > 1000 | 200 to 1000 |
| [2H]C([2H])([2H])[C@H](c1c(OC(F)F)ccc(F)c1Cl)c1c[nH]c2ncc(-c3cnn([C@H]4CC[C@H](O)CC4)c3C)cc12 [Example 113, trans-4-(4-{3-[(1S)-1-[2-Chloro-6-(difluoromethoxy)-3-fluorophenyl](2,2,2-^2H3)ethyl]-1H-pyrrolo[2,3-b]pyridin-5-yl}-5-methyl-1H-pyrazol-1-yl)cyclohexanol] | ≤ 50 | ≤ 200 | ≤ 50 |

Other lines, results leading:

| IC50 (MKN45 cells) [nM] | IC50 (RON) [nM] | IC50 (Karpas-299 cells) [nM] | SMILES |
| --- | --- | --- | --- |
| ≤ 50 | ≤ 200 | ≤ 50 | [2H][C@@](C)(c1c(OC(F)F)ccc(F)c1Cl)c1c[nH]c2ncc(-c3cnn([C@H]4CC[C@H](O)CC4)c3C)cc12 [Example 114, trans-4-(4-{3-[(1S)-1-[2-Chloro-6-(difluoromethoxy)-3-fluorophenyl](1-^2H)ethyl]-1H-pyrrolo[2,3-b]pyridin-5-yl}-5-methyl-1H-pyrazol-1-yl)cyclohexanol] |
| 50 to 200 | > 1000 | ≤ 50 | Cc1c(-c2cnc3[nH]cc(C(C)c4c(Cl)ccc(F)c4O)c3c2)cnn1[C@H]1CC[C@H](O)CC1 (stereo partly drawn) [Example 115, 3-Chloro-6-fluoro-2-(1-{5-[1-(trans-4-hydroxycyclohexyl)-5-methyl-1H-pyrazol-4-yl]-1H-pyrrolo[2,3-b]pyridin-3-yl}ethyl)-phenol] |
| 50 to 200 | 200 to 1000 | 50 to 200 | Cc1c(-c2cnc3[nH]cc([C@H](CF)c4c(Cl)ccc(F)c4Cl)c3c2)cnn1[C@H]1CC[C@H](O)CC1 [Example 118, trans-4-(4-{3-[(1S)-1-(2,6-Dichloro-3-fluorophenyl)-2-fluoroethyl]-1H-pyrrolo[2,3-b]pyridin-5-yl}-5-methyl-1H-pyrazol-1-yl)cyclohexanol] |
| 200 to 1000 | > 1000 | 200 to 1000 | COc1ccc(F)c(Cl)c1[C@H](CF)c1c[nH]c2ncc(-c3cnn([C@H]4CC[C@H](O)CC4)c3C)cc12 [Example 120, trans-4-(4-{3-[(1R)-1-(2-Chloro-3-fluoro-6-methoxyphenyl)-2-fluoroethyl]-1H-pyrrolo[2,3-b]pyridin-5-yl}-5-methyl-1H-pyrazol-1-yl)cyclohexanol] |
